Results: patent US9474790B2, “Stable, protracted GLP-1/glucagon receptor co-agonists for medical use” (Novo Nordisk A/S, priority 2013, dated 2016)
Numbered stars: 1 amine (or outer) side, 2 acyl side, 3 side chain; on linkers, the order of the positions; unused ones are H or OH. Square brackets hold non-standard residues; d marks the D form. Side chains are listed from the residue outwards. Peptide text beside a SMILES is read from it. * marks the point of attachment. C18 diacid = O=C(O)CCCCCCCCCCCCCCCCC(=O)*; γGlu = O=C(O)[C@H](CCC(=O)[*:2])N[*:1]; AEEA = NCCOCCOCC(=O)O; Aib = CC(C)(N)C(=O)O

These molecules were tested against T1, human glucagon receptor (Homo sapiens, UniProt P47871) (assay: Glucagon receptor binding, 125I-glucagon displacement SPA on isolated membranes). Details: displacement of 125I-glucagon from membranes; read-out: IC50 GlucR.
T1 construct: expressed in transfected cells; host or cells: BHK cells (parent BHK570, CRE luciferase clone BHK/KZ10-20-48), clone pLJ6'-4-25
Experimental: The purpose of this assay was to test the in vitro receptor binding activity (i.e. affinity) of the glucagon derivatives of the invention. The receptor binding activity is a measure of affinity of a derivative for the human glucagon receptor.
The receptor binding of each compound to the human glucagon receptor was measured in a displacement binding assay. In this type of assay a labelled ligand (in this case 125I-glucagon) is bound to the receptor. Each derivative was added in a series of concentrations to isolated membranes containing the human glucagon receptor and displacement of the labelled ligand is monitored. The receptor binding was reported as the concentration at which half of the labelled ligand is displaced from the receptor, the IC50 value.
In order to test the binding of the derivatives to albumin, the assay may be performed in a very low concentration of serum albumin (max. 0.001% final assay concentration) as well as in the presence of a higher concentration of serum albumin (0.2% final assay concentration). An increase of the IC50 value, in the presence of serum albumin indicates an affinity to serum albumin and represents a method to predict a protracted pharmacokinetic profile of the test substance in animal models.
The following chemicals were used in the assay: DMEM w Glutamax (Gibco 61965-026), Pen/strep (Invitrogen 15140-122), G418 (Invitrogen 10131-027), Versene (Gibco 15040), 1 M Hepes (Gibco 15630), PBS (Invitrogen 14190-094), fetal calf serum (Invitrogen 16140-071), MgCl2 (Merck 1.05832.1000), EDTA (Invitrogen 15575-038), CaCl2 (Sigma, C5080), Tween 20 (Amresco 0850C335), ovalbumin (Sigma A5503), SPA particles (wheat germ agglutinin (WGA) SPA beads, Perkin Elmer RPNQ0001), [125I]-glucagon (produced in-house), OptiPlate™-96 (Packard 6005290).
HME buffer consisted of 25 mM HEPES, 2 mM MgCl2 and 1 mM EDTA, and pH was adjusted to 7.4. Assay buffer consisted of 50 mM HEPES supplemented with 5 mM MgCl2, 1 mM CaCl2, 0.02% Tween 20 and 0.1% Ovalbumin, and pH was adjusted to 7.4.
The cells used in this assay (clone BHK hGCGR A3*25) were BHK cells stable transfected with an expression plasmid containing the cDNA encoding the human glucagon receptor.
The cells were grown at 5% CO2 in DMEM, 10% fetal calf serum, 1% Pen/Strep (Penicillin/Streptomycin) and 1.0 mg/ml of the selection marker G418. To make a membrane preparation the cells were grown to approximately 80% confluence. The cells were washed twice in phosphate-buffered saline and harvested. The cells were pelleted using a brief centrifugation and the cell pellet was kept on ice. Lyse the cells by adding approx. 5 ml HME buffer, mix by pipetting and snap freeze in liquid nitrogen. Thaw quickly and add HME buffer to 10 ml. The cell pellet was homogenised with an ULTRA-THURRAX dispersing instrument for 20-30 sec. The homogenate was centrifuged at 20.000×G, 4° C. for 10 min. The pellet was re-suspended (homogenised) in 1-2 ml HME buffer. The protein concentration was determined. The membranes were aliquoted and snap-frozen in liquid nitrogen and stored at minus 80° C.
1. For the receptor binding assay, 50 μl of the assay buffer was added to each well of an assay plate.
2. Test compounds were serially diluted to give the following concentrations: 8×10EE-7 M, 8×10EE-8 M, 8×10EE-9 M, 8×10EE-10 M, 8×10EE-11 M, 8×10EE-12 M and 8×10EE-13 M. Twenty-five μl were added to appropriate wells in the assay plate.
3. Cell membrane aliquots were thawed and diluted to their working concentration. Fifty μl were added to each well in the assay plate.
4. WGA SPA beads were suspended in assay buffer at 20 mg/ml. The suspension was diluted to 10 mg/ml in assay buffer just prior to addition to the assay plate. Fifty μl were added to each well in the assay plate.
5. The incubation was started by adding 25 μl of 480 pM solution of [125I]-glucagon to each well of the assay plate. A 25 μl aliquot was reserved for measuring total counts/well.
6. The assay plate was incubated for 2 h at 25° C.
7. […]

T1 sequence (P47871 26-477): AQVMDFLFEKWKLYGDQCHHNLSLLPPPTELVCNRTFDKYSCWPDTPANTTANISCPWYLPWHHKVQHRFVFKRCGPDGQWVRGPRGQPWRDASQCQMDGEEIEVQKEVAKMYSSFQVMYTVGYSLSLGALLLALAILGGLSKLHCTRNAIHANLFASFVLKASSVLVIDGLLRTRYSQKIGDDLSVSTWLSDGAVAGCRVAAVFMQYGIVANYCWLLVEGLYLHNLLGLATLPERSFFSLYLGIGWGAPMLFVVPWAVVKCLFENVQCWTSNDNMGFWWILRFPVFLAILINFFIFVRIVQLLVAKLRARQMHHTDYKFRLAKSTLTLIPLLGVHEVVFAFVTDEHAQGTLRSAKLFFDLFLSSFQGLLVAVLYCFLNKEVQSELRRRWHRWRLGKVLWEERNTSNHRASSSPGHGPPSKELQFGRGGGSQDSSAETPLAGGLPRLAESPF

| SMILES | IC50 |
| --- | --- |
| CC(C)C[C@H](NC(=O)[C@H](Cc1ccc(O)cc1)NC(=O)[C@H](CCCCN)NC(=O)[C@H](CO)NC(=O)[C@H](CC(C)C)NC(=O)[C@H](CC(=O)O)NC(=O)[C@H](CO)NC(=O)[C@@H](NC(=O)[C@H](Cc1ccccc1)NC(=O)[C@@H](NC(=O)CNC(=O)[C@H](CCC(N)=O)NC(=O)C(C)(C)NC(=O)[C@@H](N)Cc1c[nH]cn1)[C@@H](C)O)[C@@H](C)O)C(=O)N[C@@H](CCC(=O)O)C(=O)N[C@@H](CO)C(=O)N[C@@H](CCCNC(=N)N)C(=O)N[C@@H](CCCNC(=N)N)C(=O)N[C@@H](C)C(=O)N[C@@H](CCCNC(=N)N)C(=O)N[C@@H](CCC(=O)O)C(=O)N[C@@H](Cc1ccccc1)C(=O)N[C@H](C(=O)N[C@@H](CCC(N)=O)C(=O)N[C@@H](Cc1c[nH]c2ccccc12)C(=O)N[C@@H](CC(C)C)C(=O)N[C@@H](CC(C)C)C(=O)N[C@@H](CCCCNC(=O)CC[C@H](NC(=O)COCCOCCNC(=O)COCCOCCNC(=O)CC[C@H](NC(=O)CC[C@H](NC(=O)CCCCCCCCCCCCCCCCC(=O)O)C(=O)O)C(=O)O)C(=O)O)C(=O)N[C@H](C(N)=O)[C@@H](C)O)C(C)C [Example 20, N^ε29-[(4S)-4-carboxy-4-[[2-[2-[2-[[2-[2-[2-[[(4S)-4-carboxy-4-[[(4S)-4-carboxy-4-(17-carboxyheptadecanoylamino)butanoyl]amino]butanoyl]amino]ethoxy]ethoxy]acetyl]amino]ethoxy]ethoxy]acetyl]amino]butanoyl]-[Aib2,Leu10,Glu15,Arg20,Glu21,Leu27,Lys28]-Glucagon amide] (H-H[Aib]QGTFTSDLSKYLESRRAREFVQWLLK([γGlu-AEEA-AEEA-γGlu-γGlu-C18 diacid])T-NH2; N-terminus assumed) | 6.7 nM |
| CC(C)C[C@H](NC(=O)[C@H](Cc1ccc(O)cc1)NC(=O)[C@H](CCCCN)NC(=O)[C@H](CO)NC(=O)[C@H](CC(C)C)NC(=O)[C@H](CC(=O)O)NC(=O)[C@H](CO)NC(=O)[C@@H](NC(=O)[C@H](Cc1ccccc1)NC(=O)[C@@H](NC(=O)CNC(=O)[C@H](CCC(N)=O)NC(=O)C(C)(C)NC(=O)[C@@H](N)Cc1c[nH]cn1)[C@@H](C)O)[C@@H](C)O)C(=O)N[C@@H](CCC(=O)O)C(=O)N[C@@H](CO)C(=O)N[C@@H](CCCNC(=N)N)C(=O)N[C@@H](CCCNC(=N)N)C(=O)N[C@@H](C)C(=O)N[C@@H](CCCNC(=N)N)C(=O)N[C@@H](CCC(=O)O)C(=O)N[C@@H](Cc1ccccc1)C(=O)N[C@H](C(=O)N[C@@H](CCC(N)=O)C(=O)N[C@@H](Cc1c[nH]c2ccccc12)C(=O)N[C@@H](CC(C)C)C(=O)N[C@@H](CC(C)C)C(=O)N[C@@H](CCCCNC(=O)CC[C@H](NC(=O)CC[C@H](NC(=O)COCCOCCNC(=O)COCCOCCNC(=O)CC[C@H](NC(=O)CCCCCCCCCCCCCCCCC(=O)O)C(=O)O)C(=O)O)C(=O)O)C(=O)N[C@H](C(N)=O)[C@@H](C)O)C(C)C [Example 23, N^ε28-[(4S)-4-carboxy-4-[[(4S)-4-carboxy-4-[[2-[2-[2-[[2-[2-[2-[[(4S)-4-carboxy-4-(17-carboxyheptadecanoylamino)butanoyl]amino]ethoxy]ethoxy]acetyl]amino]ethoxy]ethoxy]acetyl]amino]butanoyl]amino]butanoyl]-[Aib2,Leu10,Glu15,Arg20,Glu21,Leu27,Lys28]-Glucagon amide] (H-H[Aib]QGTFTSDLSKYLESRRAREFVQWLLK([γGlu-γGlu-AEEA-AEEA-γGlu-C18 diacid])T-NH2; N-terminus assumed) | 6.4 nM |
| CC(C)C[C@H](NC(=O)[C@H](CC(=O)O)NC(=O)[C@H](CC(C)C)NC(=O)[C@H](Cc1ccc(O)cc1)NC(=O)[C@H](CCCCN)NC(=O)[C@H](CO)NC(=O)[C@H](CC(C)C)NC(=O)[C@H](CC(=O)O)NC(=O)[C@H](CO)NC(=O)[C@@H](NC(=O)[C@H](Cc1ccccc1)NC(=O)[C@@H](NC(=O)CNC(=O)[C@H](CCC(N)=O)NC(=O)C(C)(C)NC(=O)[C@@H](N)Cc1c[nH]cn1)[C@@H](C)O)[C@@H](C)O)C(=O)N[C@@H](CCCCN)C(=O)N[C@@H](CCCNC(=N)N)C(=O)N[C@@H](C)C(=O)N[C@@H](CCCNC(=N)N)C(=O)N[C@@H](CCC(=O)O)C(=O)N[C@@H](Cc1ccccc1)C(=O)N[C@H](C(=O)N[C@@H](CCC(N)=O)C(=O)N[C@@H](Cc1c[nH]c2ccccc12)C(=O)N[C@@H](CC(C)C)C(=O)N[C@@H](CC(C)C)C(=O)N[C@@H](CCCCNC(=O)CC[C@H](NC(=O)CC[C@H](NC(=O)COCCOCCNC(=O)COCCOCCNC(=O)CC[C@H](NC(=O)CCCCCCCCCCCCCCCCC(=O)O)C(=O)O)C(=O)O)C(=O)O)C(=O)N[C@H](C(N)=O)[C@@H](C)O)C(C)C [Example 26, N^ε28-[(4S)-4-carboxy-4-[[(4S)-4-carboxy-4-[[2-[2-[2-[[2-[2-[2-[[(4S)-4-carboxy-4-(17-carboxyheptadecanoylamino)butanoyl]amino]ethoxy]ethoxy]-acetyl]amino]ethoxy]ethoxy]acetyl]amino]butanoyl]amino]butanoyl]-[Aib2,Leu10,Leu16,Lys17,Arg20,Glu21, Leu27,Lys28]-Glucagon amide] (H-H[Aib]QGTFTSDLSKYLDLKRAREFVQWLLK([γGlu-γGlu-AEEA-AEEA-γGlu-C18 diacid])T-NH2) | 4 nM |
| CC(C)C[C@H](NC(=O)[C@H](Cc1ccc(O)cc1)NC(=O)[C@H](CCCCN)NC(=O)[C@H](CO)NC(=O)[C@H](CC(C)C)NC(=O)[C@H](CC(=O)O)NC(=O)[C@H](CO)NC(=O)[C@@H](NC(=O)[C@H](Cc1ccccc1)NC(=O)[C@@H](NC(=O)CNC(=O)[C@H](Cc1c[nH]cn1)NC(=O)C(C)(C)NC(=O)[C@@H](N)Cc1c[nH]cn1)[C@@H](C)O)[C@@H](C)O)C(=O)N[C@@H](CCC(=O)O)C(=O)N[C@@H](CO)C(=O)N[C@@H](CCCCN)C(=O)N[C@@H](CCCNC(=N)N)C(=O)N[C@@H](C)C(=O)N[C@@H](CCCNC(=N)N)C(=O)N[C@@H](CCC(=O)O)C(=O)N[C@@H](Cc1ccccc1)C(=O)N[C@H](C(=O)N[C@@H](CCC(N)=O)C(=O)N[C@@H](Cc1c[nH]c2ccccc12)C(=O)N[C@@H](CC(C)C)C(=O)N[C@@H](CC(C)C)C(=O)N[C@@H](CCCCNC(=O)CC[C@H](NC(=O)CC[C@H](NC(=O)COCCOCCNC(=O)COCCOCCNC(=O)CC[C@H](NC(=O)CCCCCCCCCCCCCCCCC(=O)O)C(=O)O)C(=O)O)C(=O)O)C(=O)N[C@H](C(N)=O)[C@@H](C)O)C(C)C [Example 27, N^ε28-[(4S)-4-carboxy-4-[[(4S)-4-carboxy-4-[[2-[2-[2-[[2-[2-[2-[[(4S)-4-carboxy-4-(17-carboxyheptadecanoylamino)butanoyl]amino]ethoxy]ethoxy]acetyl]amino]ethoxy]ethoxy]acetyl]amino]butanoyl]amino]butanoyl]-[Aib2,His3,Leu10,Glu15,Lys17,Arg20,Glu21,Leu27, Lys28]-Glucagon amide] (H-H[Aib]HGTFTSDLSKYLESKRAREFVQWLLK([γGlu-γGlu-AEEA-AEEA-γGlu-C18 diacid])T-NH2; N-terminus assumed) | 0.7 nM |
